Laboratory results from patent publication US9034863B2, “Compositions and methods for inhibiting entry of a hepatic virus” (The Board of Trustees of the University of Illinois, priority 2008, dated 2015).

What was measured:
HCVcc = assay: HCV cell-to-cell spread, foci-size assay with cell-free spread blocked by anti-E2 antibody; type: cell-based, Hepatitis C virus (HCV)
Description: Using an established antibody blocking approach (Timpe, et al. (2008) Hepatology 47:17-24), in which an antibody to the HCV E2 glycoprotein is used to block cell-free virus spread, the role of NPC1L1, CD81, or claudin-1 in cell-to-cell spread was tested. Briefly, subconfluent Huh7 cells were inoculated with HCVcc at a low multiplicity of infection (MOI) of 0.01 ffu/cell for 15 hours to allow sufficient time for initial viral entry into the primary cells (Sabahi, et al. (2010) Virology 407:110-9). Cells were then washed and cell-free virus spread was blocked by addition of an anti-E2 antibody at a concentration which neutralizes extracellular virus infection of cells. In parallel, cultures were co-treated with antibodies to CD81, Claudin-1 or NPC1L1 to determine if blocking of these factors prevents cell-to-cell spread. At seventy two hours post-infection, monolayers were fixed and stained for HCV-positive foci. Spread was determined by the size of the foci, as quantified by the number of cells per foci. Foci composed of 1-2 HCV E2-positive cells, which could have formed via cell division, were scored as infections that had not spread cell-to-cell, and are referred to as one-two cell foci, and represent a baseline for the assay. Foci containing […] cells were scored as infections that had successfully spread cell-to-cell, and are referred to as multicellular foci.
To confirm the role of NPC1L1 in HCV spread and verify that ezetimibe inhibits HCV cell-to-cell spread, Huh7-1 cells were inoculated with HCV JFH-1 at an MOI of 0.01 for 16 hours to allow cell-free entry to initiate infection in a small percentage of cells, before being washed and then incubated with increasing concentrations of ezetimibe. Once again extracellular HCV entry was blocked by the addition of anti-E2 antibody to neutralize cell-free virus in all cultures. […] Cells were fixed at 72 hours post-infection, and then stained to detect the number and the size of the E2-positive foci. The foci were counted and scored as one-two cell foci or as multicellular foci. […] To ensure that multicellular foci were not a result of cell division over the time course of the experiment, the same experiment was repeated in non-growing Huh7-1 cells and similar results were obtained.
Because HCV cell-free spread requires the production and secretion of infectious viral particles from infected cells, an alternative way to block cell-free virus spread is to prevent the release of infectious virus from already infected cells. […] It was of interest to determine whether the VLDL secretory pathway and related virion lipid modifications are required for cell-to-cell spread. […]

[1] = test system: intergenotypic HCVcc chimeras; assay: Cell-to-cell spread of intergenotypic HCVcc chimeras in non-growing Huh7-1 cells; type: cell-based, Hepatitis C virus (HCV)
Text: To determine if ezetimibe might be an effective therapeutic for inhibiting HCV spread of other HCV genotypes, intergenotypic HCVcc chimeras were used, in which the core through E2 region of the JFH-1 clone had been replaced with analogous regions of various HCV genotypes including H77C, J4, J8, ED43, SA13, HK6A and QC69 (Gottwein, et al. (2009) Hepatology 49(2):364-77). Again, to avoid issues of cell division, non-growing Huh7-1 cells were infected with the different chimeric viruses, and after 16 hours, the cells were washed and 0 μM or 30 μM ezetimibe was added to parallel cultures. Since the chimeras encode unique E2 proteins and thus may have differing sensitivity to inhibition by the anti-E2 antibody, in this experiment methyl cellulose was added to all cultures as an alternative means of minimizing cell-free virus spread. Seventy-two hours post-infection, the cells were fixed and stained with an antibody to HCV NS5A to detect the size of the foci formed. In all cases, the size of foci formed by each chimera were reduced in the presence of ezetimibe relative to the mock-treated control culture confirming not only that all of these genotypes use the NPC1L1 receptor for cell-to-cell spread, but that the spread of all the chimeric viruses can be inhibited by ezetimibe.
To determine if naringenin affects spread of any of the other HCV genotypes, non-growing Huh7-1 cells were infected with the different intergenic chimeric viruses and after 16 hours, the cells were washed and naringenin was added. Methyl cellulose was added to each well to prevent cell-free virus spread. In parallel, a control set of wells was treated with methyl cellulose alone. Five days post-infection, the cells were fixed and stained to detect the number of HCV NS5A-positive cells.

SMILES | size of foci (HCVcc; 30 μM added post-viral inoculation) | number of independent infection initiation events (foci of 1-2 E2-positive cells) (HCVcc; added post-infection, 24 hours post-infection) | size of the E2-positive foci formed (HCVcc; increasing concentrations added post-inoculation, 72 hours post-infection) | size of foci formed by each chimera ([1]; 30 μM, methyl cellulose, 72 hours post-infection, relative to mock-treated) | HCV cell-to-cell spread (number and size of foci) (HCVcc; non-growing Huh7-1 cells, five days post-infection, vs vehicle) | size of foci, J8/JFH-1 (2B/JFH-1) chimera ([1]; J8/JFH-1 chimera) | cell-to-cell spread of chimeric viruses ([1]; all chimeric viruses except J8/JFH-1, five days post-infection)
O=C1[C@H](CC[C@H](O)c2ccc(F)cc2)[C@@H](c2ccc(O)cc2)N1c1ccc(F)cc1 [ezetimibe, 1-(4-fluorophenyl)-(3R)-[3-(4-fluorophenyl)-(3S)-hydroxypropyl]-(45)-(4-hydroxyphenyl)-2-azetidinone] | foci of 1-2 cells | did not block infection | dose-dependent inhibition | reduced |  |  | 
O=C1C[C@@H](c2ccc(O)cc2)Oc2cc(O)cc(O)c21 [naringenin] |  |  |  |  | inhibition of cell-to-cell spread was not detected | reduced the size of foci | not inhibited
